In patent US20210116454A1, “METHODS FOR TREATING A HEMATOLOGICAL CANCER AND THE USE OF COMPANION BIOMARKERS FOR 2-(2,6-DIOXOPIPERIDIN-3-YL)-4-((2-FLUORO-4-((3-MORPHOLINOAZETIDIN-1-YL)METHYL)BENZYL)AMINO)ISOINDOLINE-1,3-DIONE” (CELGENE CORPORATION, priority 2019, published 2021):
Where two headings read alike, the source gives them in different places.

Tests used:
Farage CRBN^-/- cells = assay: Cell proliferation in CRBN^-/- (knock out) cells, 5 days; format: cell-based; details: 120 h
Source text: (§1) The activated B-cell (ABC) and MYC/BCL2 double expressor cell lines SU-DHL-2 and RIVA, the germinal center B-cell (GCB) and MYC/BCL2 double hit cell lines (and expressing BCL6) Karpas-422, SU-DHL-10, WSU-DLCL2, and the primary mediastinal B-cell lymphoma (PMBL) cell line Farage were infected with a CAS9 expressing lentivirus construct to generate the control CAS9 expressing cells. The Cas9 cells had wild type cereblon expression (CRBN^WT).
(§2) To generate the cereblon knock out cells (CRBN^−/−), the individual control CAS9 cells were infected with a construct expressing a subgenomic single guide RNA (sgRNA). Western blot analysis confirmed the absence of cereblon protein in the CRBN^−/− cells, relative to the levels of the housekeeping protein β-tubulin. The CRBN^WT and CRBN^−/− cells were treated with increasing concentrations of Compound 1 for five days.

[1] = system: Karpas-422 CRBN^-/- cells; assay: as above; format: cell-based; details: Homo sapiens, 120 h
Source text: as §1, §2

cereblon (CRBN) = cereblon (CRBN) (Homo sapiens, UniProt Q96SW2); assay: Cereblon binding TR-FRET ligand competition assay
Description: To investigate whether Compound 1 and its R-enantiomer Compound 2 could bind to cereblon, a short duration (10 to 20 minutes) ligand competition assay was used.

ZFP91 = target: T1, ZFP91 (Homo sapiens, UniProt Q96JP5+Q96SW2); assay: ePL-tagged substrate degradation kinetics in DF15 cells (enantiomer comparison); format: cell-based; parameters: ZFP91 Y-constant: scale not given here; details: for DC50: read-out: ZFP91 EC50
T1 construct: expressed in transfected cells; host or cells: DF15 cells
Description: In a second assay, DF15 cell lines expressing ePL-tagged target protein substrates were used as a model system to monitor protein degradation at 0.75, 1, 1.5, 3, 4, and 24 hours over a concentration range from 1 pM to 10 μM. The proteins evaluated were Ikaros (FIG. 17), Aiolos, and ZFP91. Compound 1 and Compound 2 were both able to degrade the substrate proteins at all time points (Table 9). In a further assay, additional time points were included to monitor the effect of treatment with Compound 1 and Compound 2.
The depth of substrate protein degradation described by the Y-constant was also measured in this assay against a negative control luciferase inhibitor (CC1071297, Y-constant=0).

[2] = system: PBMCs from four healthy donors; assay: Cytokine secretion by anti-CD3 stimulated PBMCs (MSD); format: cell-based
Description: Purified PBMCs from four healthy donors were plated on anti-CD3 antibody-coated plates to stimulate T cells and were subsequently treated with either DMSO (control) or Compound 1 at various concentrations for 3, 4, and 7 days. Secretion of cytokines was measured in supernatant fluid from PBMC cultures over time by using mesoscale (MSD) assays. Compound 1 induced IL-2 secretion at all concentrations tested.

Ikaros = Ikaros (Homo sapiens, UniProt Q13422+Q96SW2); assay: Ikaros protein level by flow cytometry during ex vivo myeloid differentiation; format: cell-based
Source text: Ikaros protein levels were monitored during periods of Compound 1 exposure and recovery. Ikaros levels were reduced during Compound 1 exposure and recovered following drug withdrawal in a concentration-dependent manner with no significant differences noted in association with different exposure schedules (FIG. 21; FIG. 22). Ikaros levels began returning to normal after at least 3 days following washout, predating full recovery of maturation of late-stage neutrophil precursors (FIG. 23). […] Accordingly, Ikaros levels in neutrophils can serve as a marker for response to Compound 1.
Ikaros protein level was analyzed by flow cytometry every two or three days. As shown in FIG. 21 and FIG. 22, Ikaros protein was degraded under both Compound 1 treatment schedules (14 days and 5 days) and its expression was restored after drug washout in a concentration dependent manner.

O=C1CC[C@H](N2C(=O)c3cccc(NCc4ccc(CN5CC(N6CCOCC6)C5)cc4F)c3C2=O)C(=O)N1 [Compound 1, (S)-2-(2,6-dioxopiperidin-3-yl)-4-((2-fluoro-4-((3-morpholinoazetidin-1-yl)methyl)benzyl)amino)isoindoline-1,3-dione] was tested, and the IC50 (Farage CRBN^-/- cells) was > 10000 nM, the IC50 [1] was > 10000 nM and the “higher binding affinity for CRBN compared to Compound 2” value (cereblon (CRBN)) was “eleven-fold”. The IC50 (cereblon (CRBN); 10 to 20 minutes, n=5) was 860 ± 100 nM, the “ZFP91 Y-constant” value (ZFP91; 0.75 hours) was 37 and the DC50 (ZFP91; 0.75 hours) was 0.54 nM. For the same compound, the “ZFP91 Y-constant” value (ZFP91; 1 hour) was 28, the DC50 (ZFP91; 1 hour) was 0.36 nM and the “ZFP91 Y-constant” value (ZFP91; 1.5 hours) was 11. For the same compound, the DC50 (ZFP91; 1.5 hours) was 0.36 nM, the “ZFP91 Y-constant” value (ZFP91; 3 hours) was 4.9 and the DC50 (ZFP91; 3 hours) was 0.19 nM. For the same compound, the “ZFP91 Y-constant” value (ZFP91; 4 hours) was 4.3, the DC50 (ZFP91; 4 hours) was 0.17 nM and the “ZFP91 Y-constant” value (ZFP91; 24 hours) was 2.0. The DC50 (ZFP91; 24 hours) was 0.15 nM, the “Interleukin-2 secretion by PBMCs” value ([2]; 0.1 to 100 nM, 3, 4, and 7 days) was “increased” and the “other monitored cytokines (TNFα, IFNγ, IL-4, IL-13, IL-10, and IL-6)” value ([2]; 3, 4, and 7 days) was “Transient or no effect”. The “recovery of Ikaros protein” value (Ikaros; Day 19, all concentrations, after 14 days of treatment) was “complete recovery” and the “time after washout at which Ikaros levels began returning to normal” value (Ikaros; neutrophil precursors, following washout) was “at least 3 days”.
